In patent publication US20120214846A1, “HEXAHYDROCYCLOPENTYL[F]INDAZOLE PYRIDYL ETHANOLS AND DERIVATIVES THEREOF AS SELECTIVE GLUCOCORTICOID RECEPTOR MODULATORS” (MERCK SHARP & DOHME CORP, priority 2009, published 2012):
In brackets after ≈: the same amount, converted by molar mass. Read-outs that look alike come from different tables or passages of the source.

Columns and labels:
Solubility at pH 2 = assay type: physicochemical
GR [1] = biological target: T1, GR (Homo sapiens, UniProt P04150); test: Transrepression Assay (GITAR), TNFα-β-lactamase reporter, U937 cells; assay type: cell-based; set-up: U937 cells contain an endogenous glucocorticoid receptor (GR); endogenous in cells; host or cells: U937 cells stably transfected with the TNF-alpha promoter beta-lactamase reporter
T1 sequence (P04150 1-777): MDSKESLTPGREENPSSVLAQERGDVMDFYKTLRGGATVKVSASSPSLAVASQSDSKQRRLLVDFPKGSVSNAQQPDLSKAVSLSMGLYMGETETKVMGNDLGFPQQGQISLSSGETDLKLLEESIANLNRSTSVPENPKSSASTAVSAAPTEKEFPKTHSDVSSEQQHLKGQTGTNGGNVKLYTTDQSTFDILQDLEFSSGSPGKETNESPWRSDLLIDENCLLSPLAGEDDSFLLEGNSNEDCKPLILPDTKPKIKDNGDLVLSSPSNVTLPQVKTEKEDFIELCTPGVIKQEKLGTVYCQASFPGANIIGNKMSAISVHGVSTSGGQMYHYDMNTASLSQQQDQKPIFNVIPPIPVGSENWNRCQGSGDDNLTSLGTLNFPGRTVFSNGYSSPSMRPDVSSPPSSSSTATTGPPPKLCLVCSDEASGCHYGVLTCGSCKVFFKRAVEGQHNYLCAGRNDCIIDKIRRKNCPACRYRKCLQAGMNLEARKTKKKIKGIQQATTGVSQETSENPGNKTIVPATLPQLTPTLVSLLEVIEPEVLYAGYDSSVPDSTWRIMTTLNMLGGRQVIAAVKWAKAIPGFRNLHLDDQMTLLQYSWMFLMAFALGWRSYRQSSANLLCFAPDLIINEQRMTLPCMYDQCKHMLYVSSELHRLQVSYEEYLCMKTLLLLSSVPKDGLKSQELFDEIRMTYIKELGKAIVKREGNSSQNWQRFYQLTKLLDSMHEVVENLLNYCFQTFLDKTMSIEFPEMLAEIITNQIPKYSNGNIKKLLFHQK
From the text: This assay assesses the ability of test compounds to control transcription from the TNFα-β-lactamase reporter gene in U937 cells, a human myelomonocytic leukemia cell line that naturally expresses the human GR. The assay measures compound dependent-repression of the TNFa promoter linked to a reporter gene.
The human U937 cells that had been stablely transfected with the TNF-α promoter driving […] are used for this assay. U937 cells contain an endogenous glucocorticoid receptor (GR). […] 50,000 cells/well are plated in 96 well black-walled plates the day of assay. Test compounds are added 10 μL/well, and cells are incubated at 37° C. for 30˜45 min. For assaying compounds, first dilute 1:10 in DMSO to make 1 mM, then further dilute 1:100 in medium to make 10× stock prior to adding to the cells. Add 50 ng/ml PMA (Sigma, cat#P8139) 10 μL/well to a final concentration 5 ng/ml, and 1 μg/ml LPS (Sigma, cat#L4130) 10 μL/well to a final concentration 100 ng/ml. Incubate cells at 37° C. overnight for ˜18 hr. PMA is stored frozen as 100 μg/ml stock in DMSO. Dilute 1:10 in DMSO for a working stock of […] and store at −20 C. For assaying, dilute the 10 μg/ml working stock 1:200 in medium to make a 10× solution (50 ng/ml). Store frozen LPS at 1 mg/ml in PBS, dilute 1:1000 in medium to make 10× (1 μg/ml) for the assay. Add 6× loading buffer (CCF2-AM) 20 μL/well, and incubate at room temperature for 70˜90 min. […] The activity repressed by 100 nM dexamethasone alone is set as 100% activity.

GR [2] = biological target: T1, GR; test: GR Ligand Binding Assay (GR BIND), HeLa cell lysate, 3H-DEX; set-up: endogenous in cells; host or cells: HeLa (ATCC) cell lysate supernatant
Protocol: Binding Buffer: TEGM (10 mM Tris-HCl, 1 mM EDTA, 10% glycerol, 1 mM beta-mecaptoethanol, 10 mM Sodium Molybdate, pH 7.2)
Phenol red-free Trypsin-EDTA is diluted in the same PBS 1:10. The cell layers are rinsed with 1× Trypsin, extra Trypsin is poured out, and the cell layers are incubated at 37° C. for ˜2 min. The flask is tapped and checked for signs of cell detachment. Once the cells begin to slide off the flask, the complete media is added. The cells are counted at this point, then diluted to the appropriate concentration and split into flasks or dishes for further culturing (Usually 1:3 to 1:6 dilution).
The cell pellet is washed twice with TEGM (10 mM Tris-HCl, 1 mM EDTA, 10% glycerol, 1 mM beta-mercaptoethanol, 10 mM Sodium Molybdate, pH 7.2). […] The cell suspension is snap frozen in liquid nitrogen or ethanol/dry ice bath and transferred to −80° C. freezer on dry ice. Before setting up the binding assay, the frozen samples are left on ice-water to just thaw (˜1 hr). Then the samples are centrifuged at 12,500 g to 20,000 g for 30 min at 4° C. The supernatant is used to set-up assay right away. If using 50 μL of supernatant, the test compound can be prepared in 50 μL of the TEGM buffer.
1×TEGM buffer is prepared, and the isotope-containing assay mixture is prepared in the following order: EtOH (2% final concentration in reaction), 3H-DEX (Amersham Biosciences) and 1×TEGM. [e.g. For 100 samples, 200 μL (100×2) of EtOH+4.25 μL of 1:10 3H-Dex stock+2300 μL (100×23) 1×TEGM]. The compound is serially diluted, e.g., if starting final conc. is 1 μM, and the compound is in 25 μL of solution, for duplicate samples, 75 μL of 4×1 μM solution is made and 3 μL of 100 μM is added to 72 μL of buffer, and 1:5 serial dilution.
25 μL of 3H-DEX (6 nM) trace and 25 μl, compound solution are first mixed together, followed by addition of 50 μL receptor solution. The reaction is gently mixed, spun briefly at about 200 rpm and incubated at 4° C. overnight. 100 μL of 50% HAP slurry is prepared and added to the incubated reaction which is then vortexed and incubated on ice for 5 to 10 minutes. The reaction mixture is vortexed twice more to resuspend HAP while incubating reaction. The samples in 96-well format are then washed in wash buffer using The FilterMate™ Universal Harvester plate washer (Packard). The washing process transfers HAP pellet containing ligand-bound expressed receptor to Unifilter-96 GF/B filter plate (Packard). The HAP pellet on the filter plate is incubated with 50 μL of MICROSCINT (Packard) scintillint for 30 minutes before being counted on the TopCount microscintillation counter (Packard). IC50s are calculated using DEX as a reference.

[3] = pH 2, aqueous buffer, pH 2, read-out: Solubility At pH 2
[4] = U937 cells, inflection point, read-out: Transrepression U937 Cells GITAR IP
[5] = U-937, U937 cells, activity repressed by 100 nM dexamethasone set as 100%, read-out: Transrepression U937 Cells GITAR Emax
[6] = HeLa cell lysate, 3H-DEX, read-out: GR BIND Ki
[7] = U937 cells, activity repressed by 100 nM dexamethasone set as 100%
[8] = pH 2, read-out: Solubility At pH 2
[9] = Table 4, literature compounds, read-out: GITAR IP
[10] = U-937, Table 4, literature compounds, read-out: GITAR EMAX
[11] = Table 4, literature compounds, read-out: GR BIND

| Structure (SMILES) | solubility (Solubility at pH 2; [3]) [µM] | EC50 (GR [1]; [4]) [nM] | Emax (GR [1]; [5]) [%] | Ki (GR [2]; [6]) [nM] | Transrepression U937 Cells GITAR Emax (GR [1]; [7]) [%] | solubility (Solubility at pH 2; [8]) [µM] | solubility (Solubility at pH 2; Table 4, literature compounds) | EC50 (GR [1]; [9]) [nM] | Emax (GR [1]; [10]) [%] | Ki (GR [2]; [11]) [nM] |
| --- | --- | --- | --- | --- | --- | --- | --- | --- | --- | --- |
| Cc1cccnc1C(O)C[C@]1(O)CCC2=Cc3c(cnn3-c3ccc(F)cc3)C[C@@]21C (single isomer, unassigned) [Example 1a] | 148 (≈ 62.1 µg/mL) | 95.2 | 71.3 | 6.7 |  |  |  |  |  |  |
| Cc1cccnc1C(O)C[C@]1(O)CCC2=Cc3c(cnn3-c3ccc(F)cc3)C[C@@]21C (single isomer, unassigned) [Example 1b] |  | 233 |  | 3.9 | 58.3 |  |  |  |  |  |
| C[C@]12Cc3cnn(-c4ccc(F)cc4)c3C=C1CC[C@@]2(O)CC(O)c1ccccn1 (single isomer, unassigned) [Example 2a] | 105 (≈ 42.6 µg/mL) | 237 | 63.5 | 11.7 |  |  |  |  |  |  |
| C[C@]12Cc3cnn(-c4ccc(F)cc4)c3C=C1CC[C@@]2(O)CC(O)c1ccccn1 (single isomer, unassigned) [Example 2b] |  | 128 |  | 6.4 | 68.6 | 192 (≈ 77.9 µg/mL) |  |  |  |  |
| C[C@]12Cc3cnn(-c4ccc(F)cc4)c3C=C1CC[C@@]2(O)CC(O)c1cc(C(F)(F)F)ccn1 (single isomer, unassigned) [Example 5a] |  | 67.5 | 89.1 | 2.6 |  | 18 (≈ 8.52 µg/mL) |  |  |  |  |
| C[C@]12Cc3cnn(-c4ccc(F)cc4)c3C=C1CC[C@@]2(O)CC(O)c1cc(C(F)(F)F)ccn1 (single isomer, unassigned) [Example 5b] |  | 145 |  | 4.3 | 75.6 | 3 (≈ 1.42 µg/mL) |  |  |  |  |
| C[C@]12Cc3cnn(-c4ccc(F)cc4)c3C=C1CC[C@@]2(O)CC(O)c1ccc(F)cn1 (single isomer, unassigned) [Example 7a] | 64 (≈ 27.1 µg/mL) | 441 | 75.2 | 10.8 |  |  |  |  |  |  |
| C[C@]12Cc3cnn(-c4ccc(F)cc4)c3C=C1CC[C@@]2(O)CC(O)c1ccc(F)cn1 (single isomer, unassigned) [Example 7b] |  | 248 |  | 4.8 | 83.0 | 35 (≈ 14.8 µg/mL) |  |  |  |  |
| C[C@]12Cc3cnn(-c4ccc(F)cc4)c3C=C1CC[C@@]2(O)CC(O)c1cc(Cl)ccn1 (single isomer, unassigned) [Example 8a] |  | 96.7 | 77.9 | 5 |  | <1 |  |  |  |  |
| C[C@]12Cc3cnn(-c4ccc(F)cc4)c3C=C1CC[C@@]2(O)CC(O)c1cc(Cl)ccn1 (single isomer, unassigned) [Example 8b] |  | 23.7 |  | 2.1 | 91.1 | 119 (≈ 52.4 µg/mL) |  |  |  |  |
| C[C@]12Cc3cnn(-c4ccc(F)cc4)c3C=C1CC[C@@]2(O)CC(O)c1cc(Br)ccn1 (single isomer, unassigned) [Example 10a] |  | 230 |  | 3.4 | 97.5 | 7 (≈ 3.39 µg/mL) |  |  |  |  |
| C[C@]12Cc3cnn(-c4ccc(F)cc4)c3C=C1CC[C@@]2(O)CC(O)c1cc(Br)ccn1 (single isomer, unassigned) [Example 10b] |  | 48 |  | 1.7 | 64.3 | 2 (≈ 0.969 µg/mL) |  |  |  |  |
| C[C@]12Cc3cnn(-c4ccc(F)cc4)c3C=C1CC[C@@]2(O)C#Cc1ccccc1 [Ex. 1 WO 04/075840 A2, reference compound] |  |  |  |  |  |  | poor | 1660 | 12.8 | 1.18 |
| C[C@]12Cc3cnn(-c4ccc(F)cc4)c3C=C1CCC[C@@H]2[C@@H](O)Cc1ccccc1 [Ex. 22 WO 03/086294 A2, reference compound] |  |  |  |  |  |  | poor | 242 | 76.8 | 1.26 |
| C[C@]12Cc3cnn(-c4ccc(F)cc4)c3C=C1CCC[C@@H]2[C@@H](O)CCc1ccccc1 [Ex. 30 WO 03/086294 A2, reference compound] |  |  |  |  |  |  | poor | 165 | 82.9 | 1.21 |
| C[C@]12Cc3cnn(-c4ccc(F)cc4)c3C=C1CCC[C@@H]2[C@@H](O)c1ccccc1 [Ex. 35 WO 03/86294 A2, reference compound] |  |  |  |  |  |  | poor | 200 | 78.8 | 1.17 |
